Experimental data reported in US20220401415A1, “METHODS FOR TREATING NEUROLOGICAL DISORDERS WITH ALPHA1A-AR PARTIAL AGONISTS” (Curasen Therapeutics, Inc., priority 2019, published 2022).
Read-outs that look alike come from different tables or passages of the source.

How the values were obtained:
α1A-AR receptor [1] = target: T1, α1A-AR receptor (Homo sapiens, UniProt P35348); conditions: as compared to noradrenaline; FLIPR assay; Blue et al., Table 1; cited from earlier work
T1 sequence (P35348 1-466): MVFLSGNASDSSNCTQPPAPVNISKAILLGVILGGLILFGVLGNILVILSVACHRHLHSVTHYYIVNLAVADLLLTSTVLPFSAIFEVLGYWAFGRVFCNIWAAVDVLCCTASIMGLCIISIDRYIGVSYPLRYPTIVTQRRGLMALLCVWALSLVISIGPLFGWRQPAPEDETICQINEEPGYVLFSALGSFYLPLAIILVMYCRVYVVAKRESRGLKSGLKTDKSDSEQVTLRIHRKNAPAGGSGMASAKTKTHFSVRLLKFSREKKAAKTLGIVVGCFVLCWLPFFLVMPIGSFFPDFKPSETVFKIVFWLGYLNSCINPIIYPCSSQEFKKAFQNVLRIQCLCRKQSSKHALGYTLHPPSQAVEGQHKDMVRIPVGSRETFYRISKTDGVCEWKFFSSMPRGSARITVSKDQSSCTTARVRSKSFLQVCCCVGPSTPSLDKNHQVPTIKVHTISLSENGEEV

α1A-AR receptor [2] = target: T1, α1A-AR receptor; conditions: as compared to noradrenaline; InsPs accumulation assay; Blue et al., Table 1; cited from earlier work
[3] = test system: neurogenic orthostatic hypotension (nOH) patients; experiment: Treatment of patients having nOH (Example 1); format: in vivo, human; conditions: 5 mg oral tablets twice daily, follow-up after one week of treatment
Protocol: Patients between the age of 40 and 80 years old that have been diagnosed with symptomatic orthostatic hypotension due to pure autonomic failure, multiple system atrophy or Parkinson's disease (i.e., PD plus symptoms) present for treatment. At the time of presentation, autonomic function testing is conducted to confirm the diagnosis of autonomic dysfunction including sinus arrhythmia and the Valsalva maneuver.
The patients are given 5 mg dabuzalgron oral tablets and are instructed to take one tablet shortly after waking up in the morning and a second tablet 4-6 hours later each day.
Some patients return for a follow-up visit after one week of treatment. […] In the follow-up visit supine systolic blood pressure (SSBP) may be determined.

Row | SMILES | intrinsic activity (α1A-AR receptor [1]) | intrinsic activity (α1A-AR receptor [2]) | symptoms of nOH as compared to the first visit [3]
1 | Cc1c(OCC2=NCCN2)ccc(Cl)c1NS(C)(=O)=O.Cl [RO 115-1240 (dabuzalgron) HCl salt, N-[6-chloro-3-(4,5-dihydro-1H-imidazol-2-ylmethoxy)-2-methylphenyl]methanesulfonamide hydrochloride] | 0.51 | 0.27 | 
2 | Cc1c(OCC2=NCCN2)ccc(Cl)c1NS(C)(=O)=O [RO 115-1240 (dabuzalgron) free base, N-[6-chloro-3-(4,5-dihydro-1H-imidazol-2-ylmethoxy)-2-methylphenyl]methanesulfonamide] |  | 0.31 | symptoms of nOH improve
